Test results from patent publication US5330992A, “1-cyclopropyl-4-pyridyl-quinolinones” (priority 1992, dated 1994).
Like-named read-outs stand apart in the source and are kept apart here.

Assays:
[1] = system: P388 murine leukemia cells; assay: Malignant cell cytotoxicity, one-hour exposure (clonogenic survival in soft agar); assay type: cell-based; conditions: Mus musculus, 1 hr exposure, read-out: IC50 P388 1 hr. exp.
Experimental: (§1) Examples of compound I having Topo II activity were tested for malignant cell cytotoxicity. In vitro cytotoxicity was assayed by determining cell survival following exposure of P388 murine leukemia cells to a range of test compound concentrations. Cytotoxicity was quantitated following either a one-hour exposure or continuous exposure of P388 cells to test compound.
(§2) Cytotoxicity following a one-hour exposure of cells to drug was assayed by quantitating clonogenic cell survival according to a published procedure [Freshney, R. L. (1987) Culture of Animal Cells. A Manual of Basic Technique. Wiley-Liss Inc., New York, N.Y., pp. 140-144]. Briefly, following drug exposure cells were plated in soft agar and incubated (37°, 5% CO2) for 7-10 days during which time viable cells form visible colonies. Cytotoxicity following continuous exposure of cells to test compound was assayed by quantitating total P388 cells on a Coultier Counter following a 48-hour co-incubation of test compound with cells. P388 cells were maintained in log phase throughout the duration of cytotoxicity assays.
(§3) The percentage of cells surviving relative to an untreated control was graphed as a function of increasing drug concentration.

[2] = system: P388 murine leukemia cells; assay: Malignant cell cytotoxicity, continuous 48-hour exposure (Coulter Counter); assay type: cell-based; conditions: Mus musculus, read-out: IC50 P388 cont. exp.
Experimental: as §1, §2, §3

human topoisomerase II = target: T1, human topoisomerase II (Homo sapiens, UniProt P11388); assay: Mammalian Topoisomerase II Inhibition Assay (DNA-topo II complex formation); assay type: biochemical; conditions: read-out: TopoII Inh. EC50
T1 construct: Topo II was purified from late log phase suspension cultures of HeLa WIS; endogenous in cells; host or cells: HeLa WIS suspension cultures, late log phase (enzyme purified from the cells)
Experimental: Mammalian Topoisomerase II Inhibition Assay Procedure
The assay quantitates the amount of topo II covalently complexed by DNA at equilibrium during a topo II reaction. This assay determines the potential of a compound to stabilize this complex, which potential is closely related to the cytotoxicity of the compound.
Assays (in duplicate) were assembled at 4° C.
4 ng 3' end labeled (^32 P) pBR322 DNA (10^7 DMP/μg)
The assay mix including the test compound was incubated for 20 minutes at 37° C. The reaction was terminated at 37° C. by the addition of 3 μl 10% SDS followed by the addition of 266 μl 10 mM Tris-Cl pH 7.5, 20 μg/ml BSA, 20 μg/ml calf thymus DNA, 1% SDS.
A SDS/protein precipitate was formed by the addition of 28 μl 2.5M KCl followed by chilling on ice for a minimum of 10 minutes. The precipitate was collected and washed with a Brandell cell harvester on a GFB glass fiber filter membrane as follows. The contents of the assay tube were drawn up into the harvester. The tube was then rinsed 7X with 10 mM Tris-Cl pH 7.5, 1 mM EDTA and 100 mM KCl. […] After drying, CPM was determined by liquid scintillation counting with 5 ml Biofluor (NEN Research Products) or Readisafe (Beckman Instruments Inc.) cocktail.
This solution then was diluted 1/5 into water and serially thereafter in either 0.02N sodium hydroxide or 0.04N hydrogen chloride, respectively. The stock solution and serial dilution of the test compound was stored at -20° C. prior to testing.
Screening of test compound--As an initial screen, the test compound was tested at a final concentration of 2, 20 and 200 μg/ml. The compound was then retested at a range of concentrations (usually 2-3X steps) bridging their approximate EC50 's, as estimated by the prescreen.
Controls--A solvent control which indicates the base level of topo II-DNA complex formed in the absence of the test compound was included in each test. A control, in which topo II was omitted, was included for each test compound at the highest drug concentration tested.
Reference Agent--A dose response curve with mAMSA at 0.01, 0.08, 0.16, 0.32, 1.0 and 10 μg/ml was included in each test.
The maximal DNA-topo II complex formed is taken as that equal to that formed at the nearly saturating dose of mAMSA (10 μg/ml).

[3] = EC50 = concentration with activity equal to EC50 of reference mAMSA

T1 sequence (P11388 whole entry): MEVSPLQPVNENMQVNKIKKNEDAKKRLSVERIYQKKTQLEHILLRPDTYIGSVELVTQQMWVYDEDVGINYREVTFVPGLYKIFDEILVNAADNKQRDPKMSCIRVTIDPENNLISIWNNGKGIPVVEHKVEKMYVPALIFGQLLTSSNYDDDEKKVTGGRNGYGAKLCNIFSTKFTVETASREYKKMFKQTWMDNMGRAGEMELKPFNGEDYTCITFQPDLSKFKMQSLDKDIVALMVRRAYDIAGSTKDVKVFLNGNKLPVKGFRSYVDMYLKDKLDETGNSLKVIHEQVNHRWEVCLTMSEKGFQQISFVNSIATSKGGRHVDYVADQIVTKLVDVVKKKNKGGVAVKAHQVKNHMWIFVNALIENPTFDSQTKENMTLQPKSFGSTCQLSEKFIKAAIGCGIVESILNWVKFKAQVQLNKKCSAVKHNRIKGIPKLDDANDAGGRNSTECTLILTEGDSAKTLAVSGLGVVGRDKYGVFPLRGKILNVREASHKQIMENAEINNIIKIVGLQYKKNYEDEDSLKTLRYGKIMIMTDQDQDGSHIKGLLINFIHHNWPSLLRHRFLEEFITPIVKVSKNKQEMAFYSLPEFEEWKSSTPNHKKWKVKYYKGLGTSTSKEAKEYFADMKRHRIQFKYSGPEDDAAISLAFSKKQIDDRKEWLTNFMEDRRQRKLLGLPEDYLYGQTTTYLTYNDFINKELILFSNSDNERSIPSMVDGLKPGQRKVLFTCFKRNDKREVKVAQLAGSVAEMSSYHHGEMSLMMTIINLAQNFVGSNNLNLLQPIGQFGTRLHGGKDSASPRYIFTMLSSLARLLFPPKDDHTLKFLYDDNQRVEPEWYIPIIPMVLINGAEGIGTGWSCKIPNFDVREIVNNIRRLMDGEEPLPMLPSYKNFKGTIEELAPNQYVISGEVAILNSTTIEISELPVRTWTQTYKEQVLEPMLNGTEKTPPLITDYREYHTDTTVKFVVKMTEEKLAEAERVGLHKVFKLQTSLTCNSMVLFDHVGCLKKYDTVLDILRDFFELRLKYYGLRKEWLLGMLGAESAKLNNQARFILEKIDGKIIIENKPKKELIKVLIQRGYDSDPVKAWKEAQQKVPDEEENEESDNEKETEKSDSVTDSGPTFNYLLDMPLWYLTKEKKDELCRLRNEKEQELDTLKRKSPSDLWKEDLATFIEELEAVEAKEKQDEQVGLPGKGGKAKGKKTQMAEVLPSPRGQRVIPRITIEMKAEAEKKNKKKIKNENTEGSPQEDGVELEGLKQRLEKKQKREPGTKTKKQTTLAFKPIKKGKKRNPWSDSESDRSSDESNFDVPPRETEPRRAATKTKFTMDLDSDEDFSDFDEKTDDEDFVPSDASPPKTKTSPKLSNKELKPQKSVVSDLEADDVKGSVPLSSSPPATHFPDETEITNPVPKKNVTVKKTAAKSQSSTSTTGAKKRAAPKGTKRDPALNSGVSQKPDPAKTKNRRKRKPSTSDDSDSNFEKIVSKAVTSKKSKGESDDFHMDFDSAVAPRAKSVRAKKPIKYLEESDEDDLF

| SMILES | IC50 [1] [µM] | IC50 [2] [µM] | EC50 (human topoisomerase II; [3]) [µM] | EC50 (human topoisomerase II; * Bell-shaped curve, E = extrapolated) [µM] | EC50 (human topoisomerase II; * Bell-shaped curve) [µM] |
| --- | --- | --- | --- | --- | --- |
| COc1cccc(OC)c1Cc1cn(C2CC2)c2c(F)c(-c3cc(C)nc(C)c3)c(F)cc2c1=O [Example 1, 1-Cyclopropyl-6,8-difluoro-7-[2,6-dimethyl-4-pyridinyl]-3-[2,6-dimethoxyphenylmethyl]-1,4-dihydro-quinolin-4-one] | 80 | 20 | 37 |  |  |
| Cc1cc(-c2c(F)cc3c(=O)c(Cc4ccc(F)cc4O)cn(C4CC4)c3c2F)cc(C)n1 [Example 2, 1-cyclopropyl-6,8-difluoro-7-[2,6-dimethyl-4-pyridinyl]-3-[4-fluoro-2-hydroxyphenylmethyl) -4(H)-quinolone] | 1.6 |  | 1 |  |  |
| Cc1cc(-c2c(F)cc3c(=O)c(Cc4ccccn4)cn(C4CC4)c3c2F)cc(C)n1 [Example 4] |  | 4 | 12 |  |  |
| COc1cc(Cc2cn(C3CC3)c3c(F)c(-c4cc(C)nc(C)c4)c(F)cc3c2=O)cc(OC)c1OC [Example 5] |  | 18 | > 190 |  |  |
| Cc1cc(-c2c(F)cc3c(=O)c(Cc4ccc(Cl)cc4)cn(C4CC4)c3c2F)cc(C)n1 [Example 6] | 20 | 6.1 | 7.7 |  |  |
| COc1ccc(Cc2cn(C3CC3)c3c(F)c(-c4cc(C)nc(C)c4)c(F)cc3c2=O)cc1 [Example 7] | 21 | 14 |  | 14 |  |
| COc1ccccc1Cc1cn(C2CC2)c2c(F)c(-c3cc(C)nc(C)c3)c(F)cc2c1=O [Example 8] | 37 | 6.9 | 11 |  |  |
| COc1cccc(Cc2cn(C3CC3)c3c(F)c(-c4cc(C)nc(C)c4)c(F)cc3c2=O)c1 [Example 9] | 20 | 6.1 | 14 |  |  |
| Cc1cc(-c2c(F)cc3c(=O)c(Cc4ccc5c(c4)OCO5)cn(C4CC4)c3c2F)cc(C)n1 [Example 10] |  | 8.5 |  |  | 34 |
| COc1cccc(Cc2cn(C3CC3)c3c(F)c(-c4cc(C)nc(C)c4)c(F)cc3c2=O)c1OC [Example 11] |  | 8.9 | > 210 |  |  |
| COc1ccc(Cc2cn(C3CC3)c3c(F)c(-c4cc(C)nc(C)c4)c(F)cc3c2=O)c(OC)c1 [Example 12] | > 200 | 7.4 | > 210 |  |  |
| Cc1cc(-c2c(F)cc3c(=O)c(Cc4ccncc4)cn(C4CC4)c3c2F)cc(C)n1 [Example 13] |  | 2.3 | 9.1 |  |  |
| COc1cc(OC)c(Cc2cn(C3CC3)c3c(F)c(-c4cc(C)nc(C)c4)c(F)cc3c2=O)c(OC)c1 [Example 14] |  |  | > 190 |  |  |
| Cc1cc(-c2c(F)cc3c(=O)c(Cc4ccccc4C(=O)O)cn(C4CC4)c3c2F)cc(C)n1 [Example 15] |  |  | 200 |  |  |
| Cc1cc(-c2c(F)cc3c(=O)c(Cc4ccc[nH]4)cn(C4CC4)c3c2F)cc(C)n1 [Example 16] | 0.93 |  | 5.1 |  |  |
| COc1ccc(Cc2cn(C3CC3)c3c(F)c(-c4cc(C)nc(C)c4)c(F)cc3c2=O)c(OC)c1C [Example 17] |  |  | > 210 |  |  |
| CC(=O)Nc1ccc(Cc2cn(C3CC3)c3c(F)c(-c4cc(C)nc(C)c4)c(F)cc3c2=O)cc1 [Example 19] |  |  | 47 |  |  |
| Cc1cc(-c2c(F)cc3c(=O)c(Cc4c(CO)cnc(C)c4O)cn(C4CC4)c3c2F)cc(C)n1 [Example 21] |  |  | 4.6 |  |  |

| SMILES | IC50 [1] [µM] | IC50 [2] [µM] | EC50 (human topoisomerase II; [3]) [µM] | EC50 (human topoisomerase II; * Bell-shaped curve, E = extrapolated) [µM] | EC50 (human topoisomerase II; * Bell-shaped curve) [µM] |
| --- | --- | --- | --- | --- | --- |
| Cc1cc(-c2c(F)cc3c(=O)c(Cc4ccccc4NC(=O)C(F)(F)F)cn(C4CC4)c3c2F)cc(C)n1 [Example 22] |  |  | 4.7 |  |  |
| COc1ccc(OC)c(Cc2cn(C3CC3)c3c(F)c(-c4cc(C)nc(C)c4)c(F)cc3c2=O)c1 [Example 23] |  |  | 20 |  |  |
| Cc1cc(-c2c(F)cc3c(=O)c(Cc4c[nH]cn4)cn(C4CC4)c3c2F)cc(C)n1 [Example 24] | 0.39 |  | 1.6 |  |  |
| Cc1cc(-c2c(F)cc3c(=O)c(Cc4ccccc4NS(C)(=O)=O)cn(C4CC4)c3c2F)cc(C)n1 [Example 25] |  |  | 3.3 |  |  |
| Cc1cc(-c2c(F)cc3c(=O)c(Cc4ccc(O)cc4)cn(C4CC4)c3c2F)cc(C)n1 [Example 27, 1-Cyclopropyl-6,8-difluoro-7-[2,6-dimethyl-4-pyridinyl]-3-[4-hydroxyphenylmethyl]-1,4-dihydro-quinoline-4-one] | 1.5 | 0.45 | 1.2 |  |  |
| COc1cc(Cc2cn(C3CC3)c3c(F)c(-c4cc(C)nc(C)c4)c(F)cc3c2=O)cc(OC)c1O [Example 28] | 8.2 | 4.6 | 7.6 |  |  |
| Cc1cc(-c2c(F)cc3c(=O)c(Cc4cc(O)c(O)c(O)c4)cn(C4CC4)c3c2F)cc(C)n1 [Example 29] | 3 | 8 | 0.6 |  |  |
| Cc1cc(-c2c(F)cc3c(=O)c(Cc4cccc(O)c4)cn(C4CC4)c3c2F)cc(C)n1 [Example 31] | 2.2 | 1.5 | 1.1 |  |  |
| Cc1cc(-c2c(F)cc3c(=O)c(Cc4ccc(O)c(O)c4)cn(C4CC4)c3c2F)cc(C)n1 [Example 32] | 0.6 | 1.4 | 0.16 |  |  |
| Cc1cc(-c2c(F)cc3c(=O)c(Cc4cccc(O)c4O)cn(C4CC4)c3c2F)cc(C)n1 [Example 34] | 0.88 | 0.32 | 0.36 |  |  |
| Cc1cc(-c2c(F)cc3c(=O)c(Cc4c(O)cc(O)cc4O)cn(C4CC4)c3c2F)cc(C)n1 [Example 35] | 0.47 |  | 0.098 |  |  |
| Cc1cc(-c2c(F)cc3c(=O)c(Cc4ccc(O)c(C)c4O)cn(C4CC4)c3c2F)cc(C)n1 [Example 36] |  |  | 0.2 |  |  |
| Cc1cc(-c2c(F)cc3c(=O)c(Cc4cccc(F)c4O)cn(C4CC4)c3c2F)cc(C)n1 [Example 37] | 125 |  | 0.15 |  |  |
| Cc1cc(-c2c(F)cc3c(=O)c(Cc4cc(O)ccc4O)cn(C4CC4)c3c2F)cc(C)n1 [Example 38] | 0.36 |  | 0.16 |  |  |
| Cc1cc(-c2c(F)cc3c(=O)c(Cc4ccc(N)cc4)cn(C4CC4)c3c2F)cc(C)n1 [Example 39] |  |  | 7.2 |  |  |
| Cc1cc(-c2c(F)cc3c(=O)c(Cc4ccccc4N)cn(C4CC4)c3c2F)cc(C)n1 [Example 41a] |  |  | 2.1 |  |  |
| CC(=O)Nc1ccccc1Cc1cn(C2CC2)c2c(F)c(-c3cc(C)nc(C)c3)c(F)cc2c1=O [Example 41b] |  |  | 5.1 |  |  |
